What was measured:
HIS-TGFβR2 WT = HIS-TGFβR2 WT (Homo sapiens (Human), UniProt P37173); experiment: HTRF probe displacement assay, HIS-TGFβR2 WT; format: binding; details: 1 nM HIS-TGFβR2 WT, 1 hour at room temperature, read-out: TGFBR2WT IC50
Protocol: (§1) Compounds were dissolved at 10 mM in dimethylsulfoxide (DMSO) and evaluated at eleven concentrations. IC50 values were derived by non-linear regression analysis.

HIS-TGFβR1 T204D = HIS-TGFβR1 T204D (Homo sapiens (Human), UniProt P36897, T204D); experiment: HTRF probe displacement assay, HIS-TGFβR1 T204D; format: binding; details: 1 nM HIS-TGFβR1 T204D, 1 hour at room temperature, read-out: TGFBR1T204D IC50
Chain of HIS-TGFβR1 T204D (P36897 34-503 T204D): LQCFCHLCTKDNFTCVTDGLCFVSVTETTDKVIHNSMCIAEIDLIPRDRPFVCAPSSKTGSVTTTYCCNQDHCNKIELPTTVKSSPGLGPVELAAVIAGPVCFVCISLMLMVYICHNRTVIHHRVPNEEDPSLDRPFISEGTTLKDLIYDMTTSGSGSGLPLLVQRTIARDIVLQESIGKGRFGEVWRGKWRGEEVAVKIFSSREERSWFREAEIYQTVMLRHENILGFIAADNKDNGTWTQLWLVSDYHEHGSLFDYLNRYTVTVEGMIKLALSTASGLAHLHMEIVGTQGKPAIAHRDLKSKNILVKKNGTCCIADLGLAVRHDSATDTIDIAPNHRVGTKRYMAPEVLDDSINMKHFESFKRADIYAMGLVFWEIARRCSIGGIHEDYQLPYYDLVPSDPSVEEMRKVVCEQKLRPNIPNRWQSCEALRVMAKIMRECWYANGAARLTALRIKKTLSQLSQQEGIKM
Protocol: as §1

Chain of HIS-TGFβR2 WT (P37173 23-567): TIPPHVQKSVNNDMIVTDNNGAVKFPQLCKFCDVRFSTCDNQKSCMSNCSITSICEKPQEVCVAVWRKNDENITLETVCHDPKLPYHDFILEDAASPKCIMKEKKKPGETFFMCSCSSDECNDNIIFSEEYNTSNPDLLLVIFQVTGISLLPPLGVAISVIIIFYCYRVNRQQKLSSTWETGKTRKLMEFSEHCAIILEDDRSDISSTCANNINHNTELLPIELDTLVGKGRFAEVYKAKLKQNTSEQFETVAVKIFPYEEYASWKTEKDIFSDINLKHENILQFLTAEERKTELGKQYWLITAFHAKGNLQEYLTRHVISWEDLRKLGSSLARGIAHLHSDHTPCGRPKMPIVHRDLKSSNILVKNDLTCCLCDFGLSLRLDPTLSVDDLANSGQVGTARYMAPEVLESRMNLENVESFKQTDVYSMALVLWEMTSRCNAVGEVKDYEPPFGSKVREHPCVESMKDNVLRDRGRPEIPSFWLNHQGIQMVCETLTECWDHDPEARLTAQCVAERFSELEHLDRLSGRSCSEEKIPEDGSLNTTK

Row | SMILES | IC50 (HIS-TGFβR2 WT) [nM] | IC50 (HIS-TGFβR1 T204D) [nM]
1 | N#Cc1cnc2ccc(-c3cccnc3-c3cccc(C(F)F)n3)nn12 [Compound 49, 6-(6′-(difluoromethyl)-[2,2′-bipyridin]-3-yl)imidazo[1,2-b]pyridazine-3-carbonitrile] | > 15000 | 61
2 | N#Cc1cnc2ccc(-c3cccnc3-c3ccc(F)cn3)nn12 [Compound 53, 6-(5′-fluoro-[2,2′-bipyridin]-3-yl)imidazo[1,2-b]pyridazine-3-carbonitrile] | > 15000 | 605
3 | Cc1ccc(-c2ncccc2-c2ccc3ncc(C#N)n3n2)nc1 [Compound 55, 6-(5′-methyl-[2,2′-bipyridin]-3-yl)imidazo[1,2-b]pyridazine-3-carbonitrile] | > 15000 | 5230
4 | N#Cc1cnc2ccc(-c3cccnc3-c3cc(F)ccn3)nn12 [Compound 59, 6-(4′-fluoro-[2,2′-bipyridin]-3-yl)imidazo[1,2-b]pyridazine-3-carbonitrile] | > 15000 | 918
5 | NC(=O)c1cnc2ccc(-c3cccnc3-c3cc(F)ccn3)nn12 [Compound 60, 6-(4′-fluoro-[2,2′-bipyridin]-3-yl)imidazo[1,2-b]pyridazine-3-carboxamide] | > 15000 | 161
6 | Cc1nc(-c2ncccc2-c2ccc3ncc(C#N)n3n2)ccc1F [Compound 61, 6-(5′-fluoro-6′-methyl-[2,2′-bipyridin]-3-yl)imidazo[1,2-b]pyridazine-3-carbonitrile] | > 15000 | 32
7 | CC(C)c1cccc(-c2ncccc2-c2ccc3ncc(C#N)n3n2)n1 [Compound 63, 6-(6′-isopropyl-[2,2′-bipyridin]-3-yl)imidazo[1,2-b]pyridazine-3-carbonitrile] | > 15000 | 1950
8 | Cc1cccc(-c2ncccc2-c2ccc3ncc(NC(=O)C(F)(F)F)n3c2)n1 [Compound 66, 2,2,2-trifluoro-N-(6-(6′-methyl-[2,2′-bipyridin]-3-yl)imidazo[1,2-a]pyridin-3-yl)acetamide] | > 15000 | 37
9 | Cc1cccc(-c2ncccc2-c2ccc3ncc(C(=O)NCC(F)F)n3c2)n1 [Compound 68, N-(2,2-difluoroethyl)-6-(6′-methyl-[2,2′-bipyridin]-3-yl)imidazo[1,2-a]pyridine-3-carboxamide] | > 15000 | 4
10 | Cc1cccc(-c2ncccc2-c2ccc3ncc(C(=O)NCC(F)(F)F)n3c2)n1 [Compound 69, 6-(6′-methyl-[2,2′-bipyridin]-3-yl)-N-(2,2,2-trifluoroethyl)imidazo[1,2-a]pyridine-3-carboxamide] | > 15000 | 7
11 | COCCNC(=O)c1cnc2ccc(-c3cccnc3-c3cccc(C)n3)cn12 [Compound 70, N-(2-methoxyethyl)-6-(6′-methyl-[2,2′-bipyridin]-3-yl)imidazo[1,2-a]pyridine-3-carboxamide] | > 15000 | 4
12 | CC(=O)Nc1cn2cc(-c3cccnc3-c3cccc(C)n3)ccc2n1 [Compound 76, N-(6-(6′-methyl-[2,2′-bipyridin]-3-yl)imidazo[1,2-a]pyridin-2-yl)acetamide] | > 15000 | 1
13 | CC(=O)Nc1cn2cc(-c3cccnc3-c3ccc(F)c(C)n3)ccc2n1 [Compound 77, N-(6-(5′-fluoro-6′-methyl-[2,2′-bipyridin]-3-yl)imidazo[1,2-a]pyridin-2-yl)acetamide] | > 15000 | 4
14 | Cc1nc(-c2ncccc2-c2ccc3nc(C(N)=O)cn3c2)ccc1F [Compound 78, 6-(5′-fluoro-6′-methyl-[2,2′-bipyridin]-3-yl)imidazo[1,2-a]pyridine-2-carboxamide] | > 15000 | 15000
15 | NC(=O)c1cn2cc(-c3cccnc3-c3cccc(C(F)(F)F)n3)ccc2n1 [Compound 79, 6-(6′-(trifluoromethyl)-[2,2′-bipyridin]-3-yl)imidazo[1,2-a]pyridine-2-carboxamide] | > 15000 | 15000
16 | Cc1cccc(-c2ncccc2-c2ccc3nc(C(N)=O)cn3c2)n1 [Compound 80, 6-(6′-methyl-[2,2′-bipyridin]-3-yl)imidazo[1,2-a]pyridine-2-carboxamide] | > 15000 | 1020
17 | Cc1cccc(-c2ncc(F)cc2-c2ccc3ncc(C#N)n3c2)n1 [Compound 81, 6-(5-fluoro-6′-methyl-[2,2′-bipyridin]-3-yl)imidazo[1,2-a]pyridine-3-carbonitrile] | > 15000 | 16
18 | N#Cc1cnc2ccc(-c3cc(F)cnc3-c3cccc(C(F)F)n3)cn12 [Compound 83, 6-(6′-(difluoromethyl)-5-fluoro-[2,2′-bipyridin]-3-yl)imidazo[1,2-a]pyridine-3-carbonitrile] | > 15000 | 22
19 | NC(=O)c1cnc2ccc(-c3cc(F)cnc3-c3cccc(C(F)F)n3)cn12 [Compound 84, 6-(6′-(difluoromethyl)-5-fluoro-[2,2′-bipyridin]-3-yl)imidazo[1,2-a]pyridine-3-carboxamide] | > 15000 | 1
20 | Cc1cccc(-c2nc(C)ccc2-c2ccc3ncc(C#N)n3c2)n1 [Compound 86, 6-(6,6′-dimethyl-[2,2′-bipyridin]-3-yl)imidazo[1,2-a]pyridine-3-carbonitrile] | > 15000 | 187
21 | Cc1cccc(-c2nc(C)ccc2-c2ccc3ncc(C(N)=O)n3c2)n1 [Compound 87] | > 15000 | 15
22 | Cc1ccc(-c2ccc3ncc(C(N)=O)n3c2)c(-c2cccc(C(F)F)n2)n1 [Compound 88, 6-(6′-(difluoromethyl)-6-methyl-[2,2′-bipyridin]-3-yl)imidazo[1,2-a]pyridine-3-carboxamide] | > 15000 | 13
23 | Cc1cccc(-c2nc(C(F)(F)F)ccc2-c2ccc3ncc(C#N)n3c2)n1 [Compound 89, 6-(6′-methyl-6-(trifluoromethyl)-[2,2′-bipyridin]-3-yl)imidazo[1,2-a]pyridine-3-carbonitrile] | > 15000 | 3360
24 | Cc1cccc(-c2nc(C(F)(F)F)ccc2-c2ccc3ncc(C(N)=O)n3c2)n1 [Compound 90, 6-(6′-methyl-6-(trifluoromethyl)-[2,2′-bipyridin]-3-yl)imidazo[1,2-a]pyridine-3-carboxamide] | > 15000 | 84
25 | COC(=O)c1ccnc(-c2cccc(C)n2)c1-c1ccc2ncc(C#N)n2c1 [Compound 91, methyl 3-(3-cyanoimidazo[1,2-a]pyridin-6-yl)-6′-methyl-[2,2′-bipyridine]-4-carboxylate] | > 15000 | 652
26 | Cc1cccc(-c2nccc(CO)c2-c2ccc3ncc(C#N)n3c2)n1 [Compound 92, 6-(4-(hydroxymethyl)-6′-methyl-[2,2′-bipyridin]-3-yl)imidazo[1,2-a]pyridine-3-carbonitrile] | > 15000 | 487

Further lines, results first:

Row | IC50 (HIS-TGFβR2 WT) [nM] | IC50 (HIS-TGFβR1 T204D) [nM] | SMILES
27 | > 15000 | 43 | COc1cccc(-c2ncccc2-c2ccc3ncc(C#N)n3n2)n1 [Compound 50, 6-(6′-methoxy-[2,2′-bipyridin]-3-yl)imidazo[1,2-b]pyridazine-3-carbonitrile]
28 | > 15000 | 21 | COc1cccc(-c2ncccc2-c2ccc3ncc(C(N)=O)n3n2)n1 [Compound 51, 6-(6′-methoxy-[2,2′-bipyridin]-3-yl)imidazo[1,2-b]pyridazine-3-carboxamide]
29 | > 15000 | 30 | NC(=O)c1cnc2ccc(-c3cccnc3-c3cccc(C(F)F)n3)nn12 [Compound 52, 6-(6′-(difluoromethyl)-[2,2′-bipyridin]-3-yl)imidazo[1,2-b]pyridazine-3-carboxamide]
30 | > 15000 | 254 | NC(=O)c1cnc2ccc(-c3cccnc3-c3ccc(F)cn3)nn12 [Compound 54, 6-(5′-fluoro-[2,2′-bipyridin]-3-yl)imidazo[1,2-b]pyridazine-3-carboxamide]
31 | > 15000 | 5300 | Cc1ccc(-c2ncccc2-c2ccc3ncc(C(N)=O)n3n2)nc1 [Compound 56, 6-(5′-methyl-[2,2′-bipyridin]-3-yl)imidazo[1,2-b]pyridazine-3-carboxamide]
32 | > 15000 | 35 | Cc1cccc(-c2ncccc2-c2ccc3ncc(C#N)n3n2)n1 [Compound 57, 6-(6′-methyl-[2, 2′-bipyridin]-3-yl) imidazo[1,2-b]pyridazine-3-carbonitrile]
33 | > 15000 | 19 | Cc1cccc(-c2ncccc2-c2ccc3ncc(C(N)=O)n3n2)n1 [Compound 58, 6-(6′-methyl-[2,2′-bipyridin]-3-yl)imidazo[1,2-b]pyridazine-3-carboxamide]
34 | > 15000 | 563 | CC(C)c1cccc(-c2ncccc2-c2ccc3ncc(C(N)=O)n3n2)n1 [Compound 64, 6-(6′-isopropyl-[2,2′-bipyridin]-3-yl)imidazo[1,2-b]pyridazine-3-carboxamide]
35 | > 15000 | 397 | N#Cc1cnc2ccc(-c3cccnc3-c3cccc(F)n3)nn12 [Compound 65, 6-(6′-fluoro-[2,2′-bipyridin]-3-yl)imidazo[1,2-b]pyridazine-3-carbonitrile]
36 | > 15000 | 26 | Cc1cccc(-c2ncccc2-c2ccc3ncc(C(=O)O)n3n2)n1 [Compound 73, 6-(6′-methyl-[2,2′-bipyridin]-3-yl)imidazo[1,2-b]pyridazine-3-carboxylic acid]
37 | > 15000 | 108 | Cc1cccc(-c2ncccc2-c2ccc3ncc(C(=O)NC4COC4)n3n2)n1 [Compound 74, 6-(6′-methyl-[2,2′-bipyridin]-3-yl)-N-(oxetan-3-yl)imidazo[1,2-b]pyridazine-3-carboxamide]
38 | > 15000 | 25 | Cc1cccc(-c2ncccc2-c2ccc3ncc(C(=O)NC4CC4)n3n2)n1 [Compound 75, N-cyclopropyl-6-(6′-methyl-[2,2′-bipyridin]-3-yl)imidazo[1,2-b]pyridazine-3-carboxamide]

— patent publication US9981944B2, “GDF-8 inhibitors” (Rigel Pharmaceuticals, Inc., priority 2015, dated 2018)
